Experimental findings from patent US20120121591A1 (priority 2009, published 2012) are described below.

Each structure is given as a SMILES string. Read-outs that look alike come from different tables or passages of the source.

Holding throughout (assay type): cell-based
One assay deals with hKv1.3 (Homo sapiens, UniProt P22001). The assay is described as follows: cell-based. The conditions noted are these: Kv1.3 (IWQ) IC50 (nM, Avg).
The subject of assay [1] is IL-2 secretion from T cells in human whole blood. The conditions noted are these: read-out: WB (IL-2) IC50 (nM, Avg).
Assay [2] relates to IFN-g secretion from T cells in human whole blood.
Where [3] appears, read: read-out: WB (IFNg) IC5- (nM, Avg).
Where [4] appears, read: read-out: WB (IFNg) IC50 (nM, Avg).

hKv1.3, sequence (P22001 whole entry): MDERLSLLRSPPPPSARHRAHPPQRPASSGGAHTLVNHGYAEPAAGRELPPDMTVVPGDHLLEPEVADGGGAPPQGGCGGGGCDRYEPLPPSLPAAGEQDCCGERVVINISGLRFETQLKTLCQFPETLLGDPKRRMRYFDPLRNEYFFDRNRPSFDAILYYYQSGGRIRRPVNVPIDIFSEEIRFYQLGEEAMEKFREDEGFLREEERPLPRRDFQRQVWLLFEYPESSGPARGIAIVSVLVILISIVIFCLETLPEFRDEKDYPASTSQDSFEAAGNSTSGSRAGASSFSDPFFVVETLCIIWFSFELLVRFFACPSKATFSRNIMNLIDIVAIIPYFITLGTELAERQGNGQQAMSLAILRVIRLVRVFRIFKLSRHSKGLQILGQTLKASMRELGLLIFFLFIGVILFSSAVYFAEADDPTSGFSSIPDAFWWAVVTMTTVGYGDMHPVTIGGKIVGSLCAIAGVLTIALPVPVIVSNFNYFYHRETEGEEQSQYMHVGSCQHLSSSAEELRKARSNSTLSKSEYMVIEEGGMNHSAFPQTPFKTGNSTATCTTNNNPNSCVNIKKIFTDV

Consider `CC[C@H](C)[C@@H]1NC(=O)[C@@H](NC(=O)[C@H](CO)NC(=O)[C@@H](N)CCCNC(=N)N)CSSC[C@@H](C(=O)O)NC(=O)[C@H]([C@@H](C)O)NC(=O)CNC(=O)[C@@H]2CSSC[C@@H]3NC(=O)[C@H](CCC(N)=O)NC(=O)[C@H](Cc4ccccc4)NC(=O)[C@H](C)NC(=O)[C@H](CCC(=O)O)NC(=O)[C@H](CSSC[C@H](NC(=O)[C@H](Cc4ccccc4)NC(=O)[C@H](CO)NC(=O)[C@H](CC(C)C)NC(=O)[C@H](CCCNC(=N)N)NC(=O)[C@H](Cc4ccc(O)cc4)NC(=O)[C@H](CCCCN)NC(=O)[C@H](CCSC)NC(=O)[C@H](CO)NC(=O)[C@H](Cc4c[nH]cn4)NC(=O)[C@H](CCCCN)NC3=O)C(=O)N[C@@H](CCCNC(=N)N)C(=O)N[C@@H](CCCCN)C(=O)N[C@@H]([C@@H](C)O)C(=O)N2)NC(=O)[C@H](CCCNC(=N)N)NC(=O)[C@H](CO)NC(=O)[C@H](CCCCN)NC(=O)[C@@H]2CCCN2C(=O)[C@H]([C@@H](C)CC)NC(=O)[C@H]([C@@H](C)O)NC(=O)[C@H](CC(=O)O)NC1=O` [[Glu13]ShK], for which the IC50 against hKv1.3 is 0.157 nM; in assay [1] it was 0.785 nM; in assay [2] (setting [3]) it was 1.1 nM.

Turning to `CC[C@H](C)[C@@H]1NC(=O)[C@@H](NC(=O)[C@H](CO)NC(=O)[C@@H](N)CCCNC(=N)N)CSSC[C@@H](C(=O)O)NC(=O)[C@H]([C@@H](C)O)NC(=O)CNC(=O)[C@@H]2CSSC[C@@H]3NC(=O)[C@H](CCC(N)=O)NC(=O)[C@H](CCC(=O)O)NC(=O)[C@H](C)NC(=O)[C@H]([C@@H](C)O)NC(=O)[C@H](CSSC[C@H](NC(=O)[C@H](Cc4ccccc4)NC(=O)[C@H](CO)NC(=O)[C@H](CC(C)C)NC(=O)[C@H](CCCNC(=N)N)NC(=O)[C@H](Cc4ccc(O)cc4)NC(=O)[C@H](CCCCN)NC(=O)[C@H](CCSC)NC(=O)[C@H](CO)NC(=O)[C@H](Cc4c[nH]cn4)NC(=O)[C@H](CCCCN)NC3=O)C(=O)N[C@@H](CCCNC(=N)N)C(=O)N[C@@H](CCCCN)C(=O)N[C@@H]([C@@H](C)O)C(=O)N2)NC(=O)[C@H](CCCNC(=N)N)NC(=O)[C@H](CO)NC(=O)[C@H](CCCCN)NC(=O)[C@@H]2CCCN2C(=O)[C@H]([C@@H](C)CC)NC(=O)[C@H]([C@@H](C)O)NC(=O)[C@H](CC(=O)O)NC1=O` [[Glu15]ShK], the IC50 against hKv1.3 was found to be 0.266 nM; in assay [1], 0.312 nM; in assay [2] (setting [3]), 0.575 nM.

Regarding `CC[C@H](C)[C@@H]1NC(=O)[C@@H](NC(=O)[C@H](CO)NC(=O)[C@@H](N)CCCNC(=N)N)CSSC[C@@H](C(=O)O)NC(=O)[C@H]([C@@H](C)O)NC(=O)CNC(=O)[C@@H]2CSSC[C@@H]3NC(=O)[C@H](CCC(=O)O)NC(=O)[C@H](Cc4ccccc4)NC(=O)[C@H](C)NC(=O)[C@H]([C@@H](C)O)NC(=O)[C@H](CSSC[C@H](NC(=O)[C@H](Cc4ccccc4)NC(=O)[C@H](CO)NC(=O)[C@H](CC(C)C)NC(=O)[C@H](CCCNC(=N)N)NC(=O)[C@H](Cc4ccc(O)cc4)NC(=O)[C@H](CCCCN)NC(=O)[C@H](CCSC)NC(=O)[C@H](CO)NC(=O)[C@H](Cc4c[nH]cn4)NC(=O)[C@H](CCCCN)NC3=O)C(=O)N[C@@H](CCCNC(=N)N)C(=O)N[C@@H](CCCCN)C(=O)N[C@@H]([C@@H](C)O)C(=O)N2)NC(=O)[C@H](CCCNC(=N)N)NC(=O)[C@H](CO)NC(=O)[C@H](CCCCN)NC(=O)[C@@H]2CCCN2C(=O)[C@H]([C@@H](C)CC)NC(=O)[C@H]([C@@H](C)O)NC(=O)[C@H](CC(=O)O)NC1=O` [[Glu16]ShK], the results for the IC50 (against hKv1.3; in assay [1]; in assay [2] (setting [3])) were 0.206 nM, 0.351 nM and 0.373 nM, respectively.

With `CCCC[C@@H]1NC(=O)[C@H](CO)NC(=O)[C@H](Cc2c[nH]cn2)NC(=O)[C@H](CCC(=O)O)NC(=O)[C@@H]2CSSC[C@@H]3NC(=O)[C@H]([C@@H](C)O)NC(=O)[C@H](CCCNC(=N)N)NC(=O)[C@H](CCCNC(=N)N)NC(=O)[C@H](CSSC[C@H](NC(=O)[C@H](CCCNC(=N)N)NC(=O)[C@H](CO)NC(=O)[C@H](CCCCN)NC(=O)[C@@H]4CCCN4C(=O)[C@H]([C@@H](C)CC)NC(=O)[C@H]([C@@H](C)O)NC(=O)[C@H](CC(=O)O)NC(=O)[C@H]([C@@H](C)CC)NC(=O)[C@@H](NC(=O)[C@H](CO)NC(=O)[C@@H](N)CCCNC(=N)N)CSSC[C@@H](C(N)=O)NC(=O)[C@H]([C@@H](C)O)NC(=O)CNC3=O)C(=O)N[C@@H]([C@@H](C)O)C(=O)N[C@@H](C)C(=O)N[C@@H](Cc3ccccc3)C(=O)N[C@@H](CCCCN)C(=O)N2)NC(=O)[C@H](Cc2ccccc2)NC(=O)[C@H](CO)NC(=O)[C@H](CC(C)C)NC(=O)[C@H](CCCNC(=N)N)NC(=O)[C@H](Cc2ccc(O)cc2)NC(=O)[C@H](CCCCN)NC1=O` [[Glu18, Lys16, Nle21,Arg30]ShK-amide], the IC50 came to 0.226 nM against hKv1.3, 1.22 nM in assay [1] and 0.969 nM in assay [2] (setting [4]).

In the case of `CCCC[C@@H]1NC(=O)[C@H](CO)NC(=O)[C@H](Cc2c[nH]cn2)NC(=O)[C@H](CCC(=O)O)NC(=O)[C@@H]2CSSC[C@@H]3NC(=O)[C@H]([C@@H](C)O)NC(=O)[C@H](CCCCN)NC(=O)[C@H](CCCNC(=N)N)NC(=O)[C@H](CSSC[C@H](NC(=O)[C@H](CCCNC(=N)N)NC(=O)[C@H](CO)NC(=O)[C@H](CCCCN)NC(=O)[C@@H]4CCCN4C(=O)[C@H]([C@@H](C)CC)NC(=O)[C@H]([C@@H](C)O)NC(=O)[C@H](CC(=O)O)NC(=O)[C@H]([C@@H](C)CC)NC(=O)[C@@H](NC(=O)[C@H](CO)NC(=O)[C@@H](N)CCCNC(=N)N)CSSC[C@@H](C(N)=O)NC(=O)[C@H]([C@@H](C)O)NC(=O)CNC3=O)C(=O)N[C@@H]([C@@H](C)O)C(=O)N[C@@H](C)C(=O)N[C@@H](C)C(=O)N[C@@H](CCCCN)C(=O)N2)NC(=O)[C@H](Cc2ccccc2)NC(=O)[C@H](CO)NC(=O)[C@H](CC(C)C)NC(=O)[C@H](CCCNC(=N)N)NC(=O)[C@H](Cc2ccc(O)cc2)NC(=O)[C@H](CCCCN)NC1=O` [[Glu18,Ala15,Lys16,Nle21]ShK-amide], the results for the IC50 (against hKv1.3; in assay [1]; in assay [2] (setting [4])) were 0.202 nM, 1.35 nM and 1.29 nM, respectively.

On to `CC[C@H](C)[C@@H]1NC(=O)[C@@H](NC(=O)[C@H](CO)NC(=O)[C@@H](N)CCCNC(=N)N)CSSC[C@@H](C(=O)O)NC(=O)[C@H]([C@@H](C)O)NC(=O)CNC(=O)[C@@H]2CSSC[C@@H]3NC(=O)[C@H](CCC(N)=O)NC(=O)[C@H](Cc4ccccc4)NC(=O)[C@H](C)NC(=O)[C@H]([C@@H](C)O)NC(=O)[C@H](CSSC[C@H](NC(=O)[C@H](Cc4ccccc4)NC(=O)[C@H](CO)NC(=O)[C@H](CC(C)C)NC(=O)[C@H](CCCNC(=N)N)NC(=O)[C@H](Cc4ccc(O)cc4)NC(=O)[C@H](CCCCN)NC(=O)[C@H](CCSC)NC(=O)[C@H](CO)NC(=O)[C@H](Cc4c[nH]cn4)NC(=O)[C@H](CCC(=O)O)NC3=O)C(=O)N[C@@H](CCCNC(=N)N)C(=O)N[C@@H](CCCCN)C(=O)N[C@@H]([C@@H](C)O)C(=O)N2)NC(=O)[C@H](CCCNC(=N)N)NC(=O)[C@H](CO)NC(=O)[C@H](CCCCN)NC(=O)[C@@H]2CCCN2C(=O)[C@H]([C@@H](C)CC)NC(=O)[C@H]([C@@H](C)O)NC(=O)[C@H](CC(=O)O)NC1=O` [[Glu18]ShK], for which the IC50 at hKv1.3 is 0.117 nM; in assay [1], 0.047 nM; in assay [2] (setting [3]), 0.083 nM.

Consider `CC[C@H](C)[C@@H]1NC(=O)[C@@H](NC(=O)[C@H](CO)NC(=O)[C@@H](N)CCCNC(=N)N)CSSC[C@@H](C(=O)O)NC(=O)[C@H]([C@@H](C)O)NC(=O)CNC(=O)[C@@H]2CSSC[C@@H]3NC(=O)[C@H](CCC(N)=O)NC(=O)[C@H](Cc4ccccc4)NC(=O)[C@H](C)NC(=O)[C@H]([C@@H](C)O)NC(=O)[C@H](CSSC[C@H](NC(=O)[C@H](Cc4ccccc4)NC(=O)[C@H](CO)NC(=O)[C@H](CC(C)C)NC(=O)[C@H](CCCNC(=N)N)NC(=O)[C@H](Cc4ccc(O)cc4)NC(=O)[C@H](CCCCN)NC(=O)[C@H](CCSC)NC(=O)[C@H](CCC(=O)O)NC(=O)[C@H](Cc4c[nH]cn4)NC(=O)[C@H](CCCCN)NC3=O)C(=O)N[C@@H](CCCNC(=N)N)C(=O)N[C@@H](CCCCN)C(=O)N[C@@H]([C@@H](C)O)C(=O)N2)NC(=O)[C@H](CCCNC(=N)N)NC(=O)[C@H](CO)NC(=O)[C@H](CCCCN)NC(=O)[C@@H]2CCCN2C(=O)[C@H]([C@@H](C)CC)NC(=O)[C@H]([C@@H](C)O)NC(=O)[C@H](CC(=O)O)NC1=O` [[Glu20]ShK], for which the results for the IC50 (at hKv1.3; in assay [1]; in assay [2] (setting [3])) were 100 nM, 92 nM and 92 nM, respectively.

Regarding `CC[C@H](C)[C@@H]1NC(=O)[C@@H](NC(=O)[C@H](CO)NC(=O)[C@@H](N)CCCNC(=N)N)CSSC[C@@H](C(=O)O)NC(=O)[C@H]([C@@H](C)O)NC(=O)CNC(=O)[C@@H]2CSSC[C@@H]3NC(=O)[C@H](CCC(N)=O)NC(=O)[C@H](Cc4ccccc4)NC(=O)[C@H](C)NC(=O)[C@H]([C@@H](C)O)NC(=O)[C@H](CSSC[C@H](NC(=O)[C@H](Cc4ccccc4)NC(=O)[C@H](CO)NC(=O)[C@H](CC(C)C)NC(=O)[C@H](CCCNC(=N)N)NC(=O)[C@H](Cc4ccc(O)cc4)NC(=O)[C@H](CCCCN)NC(=O)[C@H](CCC(=O)O)NC(=O)[C@H](CO)NC(=O)[C@H](Cc4c[nH]cn4)NC(=O)[C@H](CCCCN)NC3=O)C(=O)N[C@@H](CCCNC(=N)N)C(=O)N[C@@H](CCCCN)C(=O)N[C@@H]([C@@H](C)O)C(=O)N2)NC(=O)[C@H](CCCNC(=N)N)NC(=O)[C@H](CO)NC(=O)[C@H](CCCCN)NC(=O)[C@@H]2CCCN2C(=O)[C@H]([C@@H](C)CC)NC(=O)[C@H]([C@@H](C)O)NC(=O)[C@H](CC(=O)O)NC1=O` [[Glu21]ShK], the IC50 on hKv1.3 was determined as 3.33 nM; in assay [1], 18.5 nM; in assay [2] (setting [3]), 28.1 nM.
